Laboratory results reported in patent publication US20240041840A1 (Areteia Therapeutics, Inc., priority 2020, published 2024).
Read-outs that look alike come from different tables or passages of the source.

What was measured:
[1] = tested on: subjects with eosinophilic asthma; conditions: for ACQ-6 Change from Baseline LSM / ACQ-6 Difference vs Placebo LSM (95% CI): 12 weeks
Text: The ACQ cutoff for well-controlled asthma is a score of about 0.75, and the ACQ cutoff for uncontrolled asthma is a score of about ≥1.5. An ACQ score change of ≥0.5 is considered clinically significant.
(§1) Evaluation of Efficacy: Blood eosinophil count, changes in pulmonary function (FEV1), Asthma Control Questionnaire (ACQ-6), Asthma Control Questionnaire (ACQ-7), Asthma Quality of Life Questionnaire (AQLQ), exhaled nitric oxide, pharyngeal and nasal eosinophil peroxidase were collected periodically during the study.
Juniper Asthma Control Six Point Questionnaire (ACQ-6)—Baseline and visits 5, 8, 11 and 14. The ACQ-6 will be used to assess improvements in asthma symptom control (6). The ACQ-6 was originally validated in participants with asthma aged 17 to 90 years (2, 3, and is one of several asthma control measures recommended by GINA Guidelines). The ACQ-6 consists of 6 items: 5 items on symptom assessment, 1 item on rescue bronchodilator use. The ACQ-6 has been fully validated, including a minimal important difference (MID) or smallest change that can be considered clinically important (0.5). The ACQ-6 will be self-administered at the clinic (questions 1-6 only) and it only takes a few minutes to complete. Participants are asked how they have been feeling during the past week and to score each item on a […] response scale, where 0 indicates ‘totally controlled’ and 6 indicates ‘severely uncontrolled.’ The total score is calculated as the mean of all questions. The questionnaire should always be completed before any other assessments.

[2] = tested on: subjects with eosinophilic asthma
Method: Pulmonary function is measured by performing a spirometry, which measures forced expiratory volume in is (FEV1), the volume of air moved in the first second of exhalation, this is a well-accepted measure of asthma. Forced vital capacity (FVC) is the total volume of air exhaled during the entire forced expiratory volume (FEV) test. The FEV1/FVC ratio is a calculated measure that may provide a more specific measure of bronchoconstriction, independent of processes such as air trapping. Pulmonary function testing can be tested pre-bronchodilator (after waiting a sufficient time so that all bronchodilator medications have cleared) or post-bronchodilator, typically 15-30 minutes after inhaling a short-acting bronchodilator, such as albuterol. Bronchodilator reversibility (BDR) is calculated and assessed by analyzing FEV1 pre- and post-bronchodilator, and calculating the change both as absolute (ml) and percentage change.
Although some of the responsible factors are modifiable, such as suboptimal medication adherence and poor inhaler technique, others reflect intrinsic deficiencies in available asthma pharmacotherapy. This deficiency is particularly apparent in patients prone to severe asthma exacerbations. […] However, all of the biologics require parenteral administration. […] A 4-arm dose ranging placebo-controlled design was chosen to provide a range of drug exposure. Blood eosinophil lowering was chosen as the primary endpoint to facilitate identification of the lowest effective dose for use in future clinical development. The Primary Assessment Period of 12 weeks was chosen to provide adequate time to observe both pharmacodynamic endpoints, such as eosinophil lowering, as well as the clinical endpoints that may improve as a consequence of eosinophil lowering (FEV1, FVC, ACQ-6, ACQ-7, and AQLQ). The 12-week Eosinophil Recovery Period was chosen based on expected recovery to near baseline count in most subjects.

[3] = tested on: eosinophil peroxidase (EPX); conditions: worded as embodiment
Method: Eosinophil peroxidase (EPX) is a granule protein uniquely secreted by eosinophils which can be detected and quantified using an enzyme-linked immunosorbent assay (ELISA). EPX is measured from mucosal swabs or sputum samples. […] In embodiments, normal nasal EPX levels are less than about 10 ng/mg of total protein, whereas moderate to severe asthma of the eosinophilic phenotype may be diagnosed as having nasal EPX levels greater than about 10 ng/mg of total protein. […] Normal induced sputum EPX levels may be less than about 200 ng/mL/g recovered sputum, whereas moderate to severe asthma of the eosinophilic phenotype is diagnosed as having induced sputum EPX levels greater than about 200 ng/mL/g recovered sputum.
as §1

[4] = tested on: subjects with eosinophilic chronic rhinosinusitis with nasal polyps; conditions: 150 mg twice daily
Text: Current asthma medications work in a variety of ways. […] The co-primary endpoints were change in AEC and change in total polyp score (TPS) from baseline to Month 6, with additional clinical and histologic endpoints assessed.

[5] = 75 mg/day, Week 12, efficacy population N = 22
[6] = 150 mg/day, Week 12, efficacy population N = 24
[7] = 300 mg/day, Week 12, efficacy population N = 28
[8] = 12 subjects with a history of asthma

## CCCN[C@@H]1CCc2nc(N)sc2C1 [dexpramipexole, (6R)-2-amino-4,5,6,7-tetrahydro-6-(propylamino) benzothiazole]
[1]; 75 mg/day
  ACQ-6 Change from Baseline LSM: −0.419
  ACQ-6 Difference vs Placebo LSM (95% CI): −0.0276 (−0.560, 0.505)
[1]; 150 mg/day
  ACQ-6 Change from Baseline LSM: −0.437
  ACQ-6 Difference vs Placebo LSM (95% CI): −0.0457 (−0.575, 0.484)
[1]; 300 mg/day
  ACQ-6 Change from Baseline LSM: −0.655
  ACQ-6 Difference vs Placebo LSM (95% CI): −0.264 (−0.772, 0.245)
[1]; across several dose groups, 12 weeks (Table 13)
  ACQ-6 scores: improved
[2]; 75 mg/day, Week 4
  Pre-Bronchodilator FVC, % change from Baseline, mean: 2.82%
  Pre-bronchodilator FVC change from Baseline LSM: 0.0925
  Pre-bronchodilator FVC difference versus Placebo LSM: 0.0785
[2]; 75 mg/day, Week 8
  Pre-Bronchodilator FVC, % change from Baseline, mean: 7.17%
  Pre-bronchodilator FVC change from Baseline LSM: 0.155
  Pre-bronchodilator FVC difference versus Placebo LSM: 0.149
[2]; 75 mg/day, Week 12
  Pre-Bronchodilator FVC, % change from Baseline, mean: 7.93%
  Pre-bronchodilator FVC change from Baseline LSM: 0.181
  Pre-bronchodilator FVC difference versus Placebo LSM: 0.140
[2]; 75 mg/day, Week 16 or Week 18
  Pre-Bronchodilator FVC, % change from Baseline, mean: 13.4%
  Pre-bronchodilator FVC change from Baseline LSM: 0.297
  Pre-bronchodilator FVC difference versus Placebo LSM: 0.329
[2]; 150 mg/day, Week 4
  Pre-Bronchodilator FVC, % change from Baseline, mean: 3.54%
  Pre-bronchodilator FVC change from Baseline LSM: 0.122
  Pre-bronchodilator FVC difference versus Placebo LSM: 0.108
[2]; 150 mg/day, Week 8
  Pre-Bronchodilator FVC, % change from Baseline, mean: 5.28%
  Pre-bronchodilator FVC change from Baseline LSM: 0.152
  Pre-bronchodilator FVC difference versus Placebo LSM: 0.146
[2]; 150 mg/day, Week 12
  Pre-Bronchodilator FVC, % change from Baseline, mean: 3.63%
  Pre-bronchodilator FVC change from Baseline LSM: 0.0714
  Pre-bronchodilator FVC difference versus Placebo LSM: 0.0304
[2]; 150 mg/day, Week 16 or Week 18
  Pre-Bronchodilator FVC, % change from Baseline, mean: 7.33%
  Pre-bronchodilator FVC change from Baseline LSM: 0.143
  Pre-bronchodilator FVC difference versus Placebo LSM: 0.175
[2]; 300 mg/day, Week 4
  Pre-Bronchodilator FVC, % change from Baseline, mean: 1.91%
  Pre-bronchodilator FVC change from Baseline LSM: 0.0983
  Pre-bronchodilator FVC difference versus Placebo LSM: 0.0844
[2]; 300 mg/day, Week 8
  Pre-Bronchodilator FVC, % change from Baseline, mean: 11.5%
  Pre-bronchodilator FVC change from Baseline LSM: 0.322
  Pre-bronchodilator FVC difference versus Placebo LSM: 0.316
[2]; 300 mg/day, Week 12
  Pre-Bronchodilator FVC, % change from Baseline, mean: 8.95%
  Pre-bronchodilator FVC change from Baseline LSM: 0.257
  Pre-bronchodilator FVC difference versus Placebo LSM: 0.216
[2]; 300 mg/day, Week 16 or Week 18
  Pre-Bronchodilator FVC, % change from Baseline, mean: 9.11%
  Pre-bronchodilator FVC change from Baseline LSM: 0.267
  Pre-bronchodilator FVC difference versus Placebo LSM: 0.299
[3]; daily dose of about 75 mg
  Reduction of the level of nasal EPX: about 36%
[3]; daily dose of about 150 mg
  Reduction of the level of nasal EPX: about 83%
[3]; daily dose of about 300 mg
  Reduction of the level of nasal EPX: about 89%
Blood eosinophils; [5]
  Subjects with AEC ≤50 cells/pL, %: (22.7%)
  Subjects with AEC ≥50% reduction from Baseline to Week 12, %: (50.07%)
Blood eosinophils; [6]
  Subjects with AEC ≤50 cells/pL, %: (37.5%)
  Subjects with AEC ≥50% reduction from Baseline to Week 12, %: (62.5%)
Blood eosinophils; [7]
  Subjects with AEC ≤50 cells/pL, %: (42.9%)
  Subjects with AEC ≥50% reduction from Baseline to Week 12, %: (57.1%)
Blood eosinophils; Week 12 compared with baseline, up to 300 mg/day
  Reduction in AEC: ≤ 80%
Blood eosinophils; all dose groups
  Dexpramipexole treated subjects with a greater than or equal to 50% reduction in AEC: approximately 60%
Blood eosinophils; blood eosinophil count of ≤50 cells/μL at week 12, dose-dependent
  Number of hematologic responders compared with placebo: significantly increased
[4]; 3 months (Baseline 5.29)
  Total polyp score (TPS), mean: 5.50
[4]; 6 month trial
  Other indices of chronic rhinosinusitis disease activity (SNOT-22, sinus CT score, Sniffin Sticks olfaction test): not improved
[4]; 6 months (Baseline 5.29)
  Total polyp score (TPS), mean: 5.42
[4]; [8]
  ACQ6 values: unchanged
  FEV1 values: unchanged
